Patent US10039780B2 (Chiesi Farmaceutici S.p.A., priority 2015, dated 2018)

Legend:
Type in all cases: physicochemical
[1] = Long term stability at 25° C. and 60% relative humidity (HPLC, ion chromatography, Karl-Fischer); details: for Impurity A concentration / Impurity B concentration / Total impurities concentration / Moisture concentration / Impurity E concentration / Impurity C concentration: 25° C./60% relative humidity; for Moisture concentration: Karl-Fischer; for Impurity E concentration: ion chromatography; for storage stability, conclusion in words: storage at 25° C./60% relative humidity
Procedure: Their pH was adjusted to 8.5 prior to lyophilization and they were stored in glass vials stoppered with a stopper specifically selected for its ability to retain as little moisture as possible after autoclaving and after drying for 8 h at 105° C. […] Cangrelor lots API A-B are cangrelor tetrasodium. They were stored in double polyethylene bags in […]. […] In addition their moisture content was determined by Karl-Fischer titration.

[2] = Solution stability of cangrelor in purified water, reverse phase HPLC; details: 1 mg/mL in purified water
[3] = Photostability of solid cangrelor in quartz cuvettes, reverse phase HPLC
Procedure: Namely, solid cangrelor was placed in two quartz cuvettes. Both cuvettes were placed in a chamber and exposed to a combination of […] (near UV) and […] (visible) light for a total of 7.8×10^6 LUX hours and 221 watt hours/m^2, but one cuvette was wrapped in aluminum foil. After 17 days, the levels of impurities in the sample were determined by reverse phase HPLC.

[4] = Accelerated pH stability of cangrelor in buffer solutions, reverse phase HPLC; details: 1 mg/mL, 7 days at 40° C. protected from light
Procedure: The extent of degradation was determined using a reverse phase HPLC method.

[5] = Hygroscopicity by dynamic vapor adsorption analysis
[6] = after 8 days, 4° C. and ambient humidity
[7] = after 8 days, 25° C. and 60% relative humidity
[8] = after 8 days, 40° C. and ambient humidity

CSCCNc1nc(SCCC(F)(F)F)nc2c1ncn2[C@@H]1O[C@H](COP(=O)([O-])OP(=O)([O-])C(Cl)(Cl)P(=O)([O-])[O-])[C@@H](O)[C@H]1O.[Na+].[Na+].[Na+].[Na+] [API A]
Impurity A concentration ([1]; 1 month): 0.28 % w/w
Impurity B concentration ([1]; 1 month): 0.22 % w/w
Total impurities concentration ([1]; 1 month): 1.10 % w/w
Moisture concentration ([1]; 1 month): 7.7 % w/w
Impurity E concentration ([1]; 1 month): 0.08 % w/w
Impurity A concentration ([1]; 3 months): 0.47 % w/w
Impurity B concentration ([1]; 3 months): 0.33 % w/w
Total impurities concentration ([1]; 3 months): 1.40 % w/w
Moisture concentration ([1]; 3 months): 11.3 % w/w
Impurity E concentration ([1]; 3 months): 0.11 % w/w
Impurity A concentration ([1]; Initial): 0.15 % w/w
Impurity B concentration ([1]; Initial): 0.11 % w/w
Total impurities concentration ([1]; Initial): 0.70 % w/w
Moisture concentration ([1]; Initial): 4.3 % w/w
Impurity E concentration ([1]; Initial): 0.06 % w/w
storage stability, conclusion in words [1]: display significant degradation over time

CSCCNc1nc(SCCC(F)(F)F)nc2c1ncn2[C@@H]1O[C@H](COP(=O)([O-])OP(=O)([O-])C(Cl)(Cl)P(=O)([O-])[O-])[C@@H](O)[C@H]1O.[Na+].[Na+].[Na+].[Na+] [API B]
Impurity A concentration ([1]; 1 month): 0.36 % w/w
Impurity B concentration ([1]; 1 month): 0.19 % w/w
Impurity C concentration ([1]; 1 month): 0.06 % w/w
Total impurities concentration ([1]; 1 month): 1.10 % w/w
Moisture concentration ([1]; 1 month): 6.9 % w/w
Impurity A concentration ([1]; 3 months): 0.51 % w/w
Impurity B concentration ([1]; 3 months): 0.32 % w/w
Impurity C concentration ([1]; 3 months): 0.08 % w/w
Total impurities concentration ([1]; 3 months): 1.50 % w/w
Moisture concentration ([1]; 3 months): 9.9 % w/w
Impurity A concentration ([1]; 6 months): 0.70 % w/w
Impurity B concentration ([1]; 6 months): 0.48 % w/w
Impurity C concentration ([1]; 6 months): 0.19 % w/w
Total impurities concentration ([1]; 6 months): 1.90 % w/w
Moisture concentration ([1]; 6 months): 11.6 % w/w
Impurity A concentration ([1]; Initial): 0.31 % w/w
Impurity B concentration ([1]; Initial): 0.11 % w/w
Impurity C concentration ([1]; Initial): <0.05 % w/w
Total impurities concentration ([1]; Initial): 0.80 % w/w
Moisture concentration ([1]; Initial): 7.0 % w/w
storage stability, conclusion in words [1]: display significant degradation over time

CSCCNc1nc(SCCC(F)(F)F)nc2c1ncn2[C@@H]1O[C@H](COP(=O)(O)OP(=O)(O)C(Cl)(Cl)P(=O)(O)O)[C@@H](O)[C@H]1O [Cangrelor, [dichloro-[[[(2R,3S,4R,5R)-3,4-dihydroxy-5-[6-(2-methylsulfanylethylamino)-2-(3,3,3-trifluoropropylsulfanyl)purin-9-yl]oxolan-2-yl]methoxy-hydroxyphosphoryl]oxy-hydroxyphosphoryl]methyl]phosphonic acid]
Cangrelor measured level ([2]; Initial): 98.23 % w/w
Impurity A measured level ([2]; Initial): 0.16 % w/w
Impurity C measured level ([2]; Initial): 0.28 % w/w
Total Impurities measured level ([2]; Initial): 1.76 % w/w
Cangrelor measured level [2, 6]: 98.45 % w/w
Impurity A measured level [2, 6]: 0.22 % w/w
Impurity C measured level [2, 6]: 0.26 % w/w
Total Impurities measured level [2, 6]: 1.54 % w/w
Cangrelor measured level [2, 7]: 96.94 % w/w
Impurity A measured level [2, 7]: 1.58 % w/w
Impurity C measured level [2, 7]: 0.27 % w/w
Total Impurities measured level [2, 7]: 3.06 % w/w
Cangrelor measured level [2, 8]: 90.46 % w/w
Impurity A measured level [2, 8]: 7.50 % w/w
Impurity C measured level [2, 8]: 0.37 % w/w
Total Impurities measured level [2, 8]: 9.56 % w/w
total level of impurities ([3]; solid cangrelor, initially): 0.8 % (w/w)
total level of impurities ([3]; solid, exposed sample, near UV and visible light, 7.8×10^6 LUX hours and 221 watt hours/m^2, after 17 days): 4.3 % (w/w)
total level of impurities ([3]; solid, shielded sample (cuvette wrapped in aluminum foil), after 17 days): 1.2 % (w/w)
Impurity A ([4]; pH 1.0, 0.1M HCl): 28.51 % w/w
Impurity D ([4]; pH 1.0, 0.1M HCl): 68.12 % w/w
Total Impurities ([4]; pH 1.0, 0.1M HCl): 97.28 % w/w
Impurity A ([4]; pH 3.0, Phosphate): 28.69 % w/w
Impurity D ([4]; pH 3.0, Phosphate): 0.81 % w/w
Total Impurities ([4]; pH 3.0, Phosphate): 31.48 % w/w
Impurity A ([4]; pH 5.0, Phosphate): 20.70 % w/w
Total Impurities ([4]; pH 5.0, Phosphate): 22.16 % w/w
Impurity A ([4]; pH 7.0, Phosphate): 14.31 % w/w
Total Impurities ([4]; pH 7.0, Phosphate): 15.71 % w/w
Impurity A ([4]; pH 9.0, Phosphate): 3.25 % w/w
Total Impurities ([4]; pH 9.0, Phosphate): 4.90 % w/w
Impurity A ([4]; pH 11.0, Phosphate): 2.61 % w/w
Total Impurities ([4]; pH 11.0, Phosphate): 4.28 % w/w
Impurity A ([4]; pH 12.0, 0.1M NaOH): 2.42 % w/w
Total Impurities ([4]; pH 12.0, 0.1M NaOH): 4.39 % w/w

CSCCNc1nc(SCCC(F)(F)F)nc2c1ncn2[C@@H]1O[C@H](COP(=O)(O)OP(=O)(O)C(Cl)(Cl)P(=O)(O)O)[C@@H](O)[C@H]1O [cangrelor tetrasodium]
hygroscopicity [5]: hygroscopic
